What is called LD50 is the dose at which mortality reaches 50%. Lower therefore signals a more toxic substance. A word on the NOAEL: it is the highest tested level that showed no adverse finding. For orientation: LOAEL means the lowest dose or exposure tested at which an adverse effect was seen.

Experimental findings from EPA's ToxValDB 9.5 are described below.

This data set has as its system Rattus norvegicus. To be noted: for LC50 / LD50: acute.
Setting [1] is: reproduction developmental, oral, gavage, Wistar.
Where [2] appears, read: repeat dose other, inhalation, Sprague-Dawley.
Setting [3] is: subchronic, duration: 3 months, inhalation, Sprague-Dawley.
[4] abbreviates: chronic, duration: 16 weeks, oral, diet, Wistar.

Several values for one entry are separate records, joined by “and”; a condition that tells them apart may be missing. Equal values may be shown once. Where a name gives a salt, the structure may show the parent alone.

For `COC(=O)CC(C)(C)C(Cl)CC(Cl)(Cl)Cl` (stereo not given), where the note is “inhalation, Sprague-Dawley”, the LC50 is more than 66.6 mg/m3. Moreover, the LD50 (oral, Sprague-Dawley) was more than 5000 mg/kg.

Where the note is “oral, gavage, Sprague-Dawley”, `CC(C)C(=O)OCC(C)(C)C(OC(=O)c1ccccc1C(=O)OCc1ccccc1)C(C)C` (stereo not given) gave a median lethal dose (LD50) of more than 18500 mg/kg.

With `CC(C)CC(C)OP(=S)([S-])OC(C)CC(C)C.CC(C)CC(C)OP(=S)([S-])OC(C)CC(C)C.[Zn+2]` (stereo not given), for the setting “oral, gavage, Sprague-Dawley”, the LD50 is ≥ 2000 mg/kg and ≤ 5000 mg/kg.

As to `COC(=O)C1C(C=C(Cl)Cl)C1(C)C` (stereo not given), under “oral, gavage, Sprague-Dawley”, the LD50 was more than 5000 mg/kg. Moreover, the NOAEL (reproduction developmental, duration: 28 days, oral, gavage, Sprague-Dawley) is 450 mg/kg-day.

For `Cc1cccc2[nH]c([S-])nc12.Cc1cccc2[nH]c([S-])nc12.[Zn+2]`, the LD50 by setting is: (dermal, semiocclusive, Sprague-Dawley) more than 2000 mg/kg; (oral) 800 mg/kg. Also, for the setting “inhalation, Sprague-Dawley”, the LC50 was more than 2.03 µg/mL.

Compound `c1ccc(-c2cccc(-c3ccccc3)c2)cc1` [1,1':3',1''-Terphenyl] returned an LD50 (oral, gavage, Sprague-Dawley) of 2400 mg/kg. Where the note is “short-term, duration: 14 days, oral, diet, Wistar”, the “LOAEL (% diet)” value stood at 0.2.

Regarding `O=C1OCCO1` [1,3-Dioxolan-2-one], the LD50 is more than 2000 mg/kg (dermal, Wistar) and more than 5000 mg/kg (oral, Sprague-Dawley). Moreover, the NOAEL (reproduction developmental, duration: 9 days, oral, gavage, F, Sprague-Dawley) is 1500 mg/kg-day and 750 mg/kg-day.

Compound `C1=C\CC/C=C\CC/1` [1,5-Cyclooctadiene] showed an LD50 (dermal, occlusive, Crl:CD1) of more than 3520 mg/kg and an LD50 (oral) of 2380 mg/kg. The NOAEL (short-term, duration: 2 weeks, inhalation, M) is 664 mg/m3.

For `C=CCC` [1-Butene], the NOAEL amounted to 18400 mg/m3 (reproduction developmental, duration: 28 days, inhalation, Sprague-Dawley, generation: F0); 18400 mg/m3 (reproduction developmental, inhalation, F, Sprague-Dawley); 18400 mg/m3 (reproduction developmental, inhalation, M, Sprague-Dawley); 18400 mg/m3 (reproduction developmental, inhalation, Sprague-Dawley, generation: F0); 18400 mg/m3 (reproduction developmental, inhalation, Sprague-Dawley, generation: F1).

Where the note is “oral, gavage, Sprague-Dawley”, `O=[N+]([O-])c1cccc(Cl)c1` [1-Chloro-3-nitrobenzene] gave an LD50 of 400 mg/kg.

For the setting “oral, Sprague-Dawley”, `CCC(C)(C#N)N=NC(C)(C#N)CC` (stereo not given) [2,2'-Azobis(2-methylbutanenitrile)] displayed an LD50 of 337 mg/kg.

On to `Clc1cc(Cl)c(Cl)nc1Cl` [2,3,5,6-Tetrachloropyridine], for which the median lethal dose (LD50) by setting is: (oral) ≥ 1180 mg/kg and ≤ 1410 mg/kg; (oral, gavage) 1000 mg/kg. The no observed adverse effect level (NOAEL) stood at 100 mg/kg-day (chronic, duration: 91 days, oral, diet, Sherman Wistar); 25 mg/kg-day (reproduction developmental, duration: 52 days, oral, gavage, F, Sprague-Dawley); 150 mg/kg-day (reproduction developmental, duration: 52 days, oral, gavage, M, Sprague-Dawley); 150 mg/kg-day (reproduction developmental, duration: 52 days, oral, gavage, Sprague-Dawley); 150 mg/kg-day (reproduction developmental, duration: 52 days, oral, gavage, Sprague-Dawley, generation: F1); 25 mg/kg-day (subchronic, duration: 52 days, oral, gavage, F, Sprague-Dawley). The NOAEL (subchronic, duration: 52 days, oral, gavage, M, Sprague-Dawley) amounted to 150 mg/kg-day.

With `CC(C)(C)c1cc(C(C)(C)C)c(O)c(C(C)(C)C)c1` [2,4,6-Tris(tert-butyl)phenol], for the setting “oral, Wistar”, the LD50 is 1610 mg/kg and 1670 mg/kg. This compound gave an NOAEL (chronic, duration: 24 months, oral, diet, Wistar) of 2.34 mg/kg-day.

With `CC=C(C)C` [2-Methyl-2-butene], the no-observed-adverse-effect level (NOAEL) is, setting by setting: (reproduction developmental, duration: 28 days, inhalation, Sprague-Dawley) 1660 mg/m3; (reproduction developmental, inhalation, Sprague-Dawley) 20100 mg/m3.

Turning to `CC(CC(=O)O)CC(C)(C)C` (stereo not given) [3,5,5-Trimethylhexanoic acid], the NOAEL is, setting by setting: (reproduction developmental, oral, diet, F, Sprague-Dawley) 1200 ppm; (reproduction developmental, oral, diet, Sprague-Dawley, generation: F1) 1200 ppm.

Consider `Cc1ccc(S(=O)(=O)O)cc1` [4-Methylbenzenesulfonic acid], for which, for the setting “oral, Wistar”, the LD50 worked out at 1410 mg/kg. This compound also yielded an NOAEL (short-term, duration: 28 days, oral, Wistar) of more than 500 mg/kg-day.

Turning to `C=CCCC#N` [4-Pentenenitrile], the LC50 (inhalation, Sprague-Dawley) was 8460 mg/m3.

As for `CSC(C)(C)/C=N/O` [Aldicarb oxime], the LD50 (oral, Wistar) is 809 mg/kg. Under setting [1], this compound returned an LOAEL of 25 mg/kg-day and an NOAEL of 5 mg/kg-day.

The compound `CC(C)CC(C)OC(=O)/C=C\C(=O)OC(C)CC(C)C` (stereo not given) [Bis(1,3-dimethylbutyl) maleate] registered an LD50 (oral, gavage, Wistar) of 7460 mg/kg.

Regarding `CC(=O)C(N=Nc1ccc(-c2ccc(N=NC(C(C)=O)C(=O)Nc3ccccc3)c(Cl)c2)cc1Cl)C(=O)Nc1ccccc1` (stereo not given) [C.I. Pigment Yellow 12], the NOAEL by setting is: (reproduction developmental, oral, gavage, Wistar, generation: F0) 1000 mg/kg-day; (reproduction developmental, oral, gavage, Wistar, generation: F1) 1000 mg/kg-day.

On to `CC(=O)C(=NNc1ccc(-c2ccc(NN=C(C(C)=O)C(=O)Nc3ccc(C)cc3C)c(Cl)c2)cc1Cl)C(=O)Nc1ccc(C)cc1C` [C.I. Pigment Yellow 13], for which the NOAEL (chronic, oral, gavage) was found to be 500 mg/kg-day.

In turn, `CCCCCCCCCCCCOCCOCCOS(=O)(=O)[O-].[Na+]` [Diethylene glycol monolauryl ether sulfate sodium salt] showed an LD50 (oral, gavage, Sprague-Dawley) of more than 5000 mg/kg.

In turn, `CC(C)OC(=O)CCCCC(=O)OC(C)C` [Diisopropyl adipate] yielded an LD50 (oral) of more than 15000 mg/kg.

For the compound `CCCCCCCCCCCCCCN(C)C` [Dimethyl(tetradecyl)amine], the LD50 came to 2120 mg/kg (oral, gavage) and 1320 mg/kg (oral, gavage, Wistar).

`c1ccc(Oc2ccccc2)cc1` [Diphenyl oxide] registered an LD50 (oral, gavage, Sprague-Dawley) of 2450 mg/kg. Further, the NOAEL is not below 500 mg/kg-day (developmental, duration: 10 days, oral, gavage, Sprague-Dawley); not below 50 mg/kg-day (reproduction developmental, duration: 10 days, oral, gavage, F, Sprague-Dawley); more than 480 mg/kg-day (subchronic, duration: 13 weeks, oral, diet, Sprague-Dawley).

In turn, `CCCCCCCCCCCOC(=O)c1ccccc1C(=O)OCCCCCCCCCCC` [Diundecyl phthalate] gave an NOAEL (short-term, duration: 21 days, oral, diet, Fischer 344) of 282 mg/kg-day.

As to `O=C(OCCOCCOCCOC(=O)c1ccccc1)c1ccccc1` [Ethylenebis(oxyethylene) dibenzoate], the median lethal dose (LD50) (dermal, Sprague-Dawley) was more than 2000 mg/kg; the LD50 (oral, Sprague-Dawley) is 4190 mg/kg and 3540 mg/kg and 4840 mg/kg. In addition, the NOAEL is 1000 mg/kg-day (developmental, duration: 14 days, oral, gavage, Sprague-Dawley); 1000 mg/kg-day (subchronic, duration: 13 weeks, oral, diet, F); 1000 mg/kg-day (subchronic, duration: 13 weeks, oral, diet, M).

Under “inhalation”, `Fc1ccccc1` [Fluorobenzene] came in with an LC50 of 26900 mg/m3. This compound also came in with an NOAEL (short-term, duration: 28 days, inhalation, F, Sprague-Dawley) of 0.37 mg/L and an NOAEL (short-term, duration: 28 days, inhalation, M, Sprague-Dawley) of 0.37 mg/L.

`CCCCCCC(C)OC(=O)CCCCC(=O)OC(C)CCCCCC` (stereo not given) [Hexanedioic acid, bis(1-methylheptyl) ester] came in with an LD50 (oral, gavage) of more than 64000 mg/kg.

Take `CCCCCCCCCCCCCCCCCC(=O)[O-].[Li+]` [Lithium octadecanoate]: the LC50 (oral) is ≥ 5000 mg/kg and ≤ 15000 mg/kg.

With `CS` [Methanethiol], the LC50 (inhalation, Sprague-Dawley) is 1330 mg/m3 and ≥ 1260 mg/m3 and ≤ 1390 mg/m3; the LC50 (inhalation, WBS/W) was 3310 mg/m3 and ≥ 2810 mg/m3 and ≤ 3900 mg/m3. Moreover, the LOAEL turned out to be 112 mg/m3 under setting [2] and 112 mg/m3 under setting [3]. Moreover, the NOAEL reads like this: under setting [2], 33.4 mg/m3; under setting [3], 33.4 mg/m3.

Regarding `CCCCCCCCCCCCCCCCN(C)C` [N,N-Dimethyl-1-hexadecanamine], the LD50 reads like this: (oral, gavage) 1020 mg/kg; (oral, gavage, Sprague-Dawley) more than 2000 mg/kg.

Consider `O=P(O)(O)c1ccccc1` [Phenylphosphonic acid], for which the LD50 (dermal, occlusive, Crl:CD(SD) BR) was more than 2000 mg/kg.

On to `CCCCOP(=O)(O)OCCCC` [Phosphoric acid, dibutyl ester], for which the NOAEL (subchronic, oral, gavage, Sprague-Dawley) worked out at 30 mg/kg-day.

On to `CCCCCCCC/C=C\CCCCCCCC(=O)OC[C@@H](O)[C@H]1OC[C@H](O)[C@H]1O` [Sorbitan, mono-(9Z)-9-octadecenoate], for which the LD50 was more than 39800 mg/kg (oral, gavage) and more than 39800 mg/kg (oral, gavage, Wistar). Moreover, under setting [4], the “LOAEL (% diet)” value was 2.5. Also, the no observed adverse effect level (NOAEL) reads like this: under setting [4], 1700 mg/kg-day; (chronic, oral, diet) 1450 mg/kg-day. The “NOAEL (% diet)” value (chronic, oral, diet) came out at 2.5.

The compound `c1ccc(-c2cccc(-c3ccccc3)c2)cc1` [Terphenyl] registered an LC50 (oral, gavage, Sprague-Dawley) of more than 5000 mg/kg.

As for `CC(O)CN(CC(C)O)CC(C)O` (stereo not given) [Triisopropanolamine], the LD50 (oral, gavage, Wistar) amounted to 6500 mg/kg. In addition, the no-observed-adverse-effect level (NOAEL) is more than 1220 mg/kg-day (chronic, duration: 102 weeks, oral, diet, Wistar); not below 1000 mg/kg-day (developmental, duration: 6 days, oral, gavage, Wistar); 400 mg/kg-day (reproduction developmental, duration: 6 days, oral, gavage, F, Wistar).

`CCCCCCCCCCCC#N` [n-Undecyl cyanide] came in with a 50% lethal dose (LD50) (oral) of more than 3400 mg/kg.
